# According to patent US6680335B2, “Methods of modulating protein tyrosine kinase function with substituted indolinone compounds” (Sugen, Inc., priority 1998, dated 2004):
# How the values were obtained:
# FLK-1 receptor = target: T1, FLK-1 receptor (Mus musculus, UniProt P35918); experiment: ELISA assay measuring the kinase activity of the FLK-1 receptor in cells engineered to express FLK-1; format: cell-based; details: FLK-1 expressing NIH3T3 C7#3 cells, VEGF stimulated; for IC50: cells without % or + sign; for inhibition at 100 µM: compound at 100 μM
# T1 construct: expressed in transfected cells; host or cells: NIH3T3 C7#3 cells
# T1 sequence (P35918 20-1345): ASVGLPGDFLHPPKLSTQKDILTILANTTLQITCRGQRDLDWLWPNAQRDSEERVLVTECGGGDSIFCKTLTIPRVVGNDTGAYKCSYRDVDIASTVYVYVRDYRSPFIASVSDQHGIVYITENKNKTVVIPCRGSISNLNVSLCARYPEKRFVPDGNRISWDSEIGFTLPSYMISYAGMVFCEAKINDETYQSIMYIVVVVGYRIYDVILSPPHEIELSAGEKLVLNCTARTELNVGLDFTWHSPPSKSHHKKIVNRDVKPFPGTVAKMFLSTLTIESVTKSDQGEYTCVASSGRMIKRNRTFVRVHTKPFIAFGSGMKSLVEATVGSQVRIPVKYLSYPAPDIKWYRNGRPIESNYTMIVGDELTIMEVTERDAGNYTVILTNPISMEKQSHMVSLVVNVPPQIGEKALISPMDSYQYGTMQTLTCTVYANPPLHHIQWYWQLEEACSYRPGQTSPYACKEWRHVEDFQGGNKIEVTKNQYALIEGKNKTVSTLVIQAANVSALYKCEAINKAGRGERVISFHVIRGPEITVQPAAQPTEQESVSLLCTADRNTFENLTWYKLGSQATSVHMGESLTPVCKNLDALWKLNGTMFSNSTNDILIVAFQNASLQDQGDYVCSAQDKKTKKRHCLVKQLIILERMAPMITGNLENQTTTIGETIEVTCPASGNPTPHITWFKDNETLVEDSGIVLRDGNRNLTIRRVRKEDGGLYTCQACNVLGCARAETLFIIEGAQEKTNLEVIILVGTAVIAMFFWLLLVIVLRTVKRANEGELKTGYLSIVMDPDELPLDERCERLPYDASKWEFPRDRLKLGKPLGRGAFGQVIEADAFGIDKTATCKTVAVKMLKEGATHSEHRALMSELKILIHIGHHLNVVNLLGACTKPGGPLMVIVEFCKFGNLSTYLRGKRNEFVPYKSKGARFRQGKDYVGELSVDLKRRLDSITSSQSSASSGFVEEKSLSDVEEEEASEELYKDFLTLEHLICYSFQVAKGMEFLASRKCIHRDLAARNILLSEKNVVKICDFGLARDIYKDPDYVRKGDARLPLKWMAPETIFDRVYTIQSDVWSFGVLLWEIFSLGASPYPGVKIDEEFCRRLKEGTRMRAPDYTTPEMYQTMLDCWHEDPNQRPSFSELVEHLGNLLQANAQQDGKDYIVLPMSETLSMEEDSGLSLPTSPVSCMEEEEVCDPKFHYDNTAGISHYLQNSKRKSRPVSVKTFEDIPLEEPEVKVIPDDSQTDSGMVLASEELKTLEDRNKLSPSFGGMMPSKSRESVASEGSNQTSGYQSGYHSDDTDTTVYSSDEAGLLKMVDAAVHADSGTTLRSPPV
# Procedure: An ELISA assay was conducted to measure the kinase activity of the FLK-1 receptor and more specifically, the inhibition or activation of TK activity on the FLK-1 receptor. Specifically, the following assay was conducted to measure kinase activity of the FLK-1 receptor in cells genetically engineered to express FLK-1.
# (11) NIH3T3 C7#3 Cells (FLK-1 expressing cells);
# The following protocol was used for conducting the assay:
# 1. Coat Corning 96-well elisa plates with 1.0 μg per well Cappel Anti-rabbit IgG antibody in 0.1 M Na2CO3 pH 9.6. Bring final volume to 150 μL per well. Coat plates overnight at 4° C. Plates can be kept up to two weeks when stored at 4° C.
# 2. Grow cells in Growth media (DMEM, supplemental with 2.0 mM L-Glutamine, 10% FBS) in suitable culture dishes until confluent at 37° C., 5% CO2.
# 3. Harvest cells by trypsinization and seed in Corning 25850 polystyrene 96-well roundbottom cell plates, 25.000 cells/well in 200 μL of growth media.
# 4. Grow cells at least one day at 37° C., 5% CO2.
# 5. Wash cells with D-PBS 1×.
# 6. Add 200 μL/well of starvation media (DMEM, 2.0 mM 1-Glutamine, 0.1% FBS). Incubate overnight at 37° C., 5% CO2.
# 7. Dilute Compounds 1:20 in polypropylene 96 well plates using starvation media. Dilute dimethylsulfoxide 1:20 for use in control wells.
# 8. Remove starvation media from 96 well cell culture plates and add 162 μL of fresh starvation media to each well.
# 9. Add 18 μL of 1:20 diluted Compound dilution (from step 7) to each well plus the 1:20 dimethylsulfoxide dilution to the control wells (+/−VEGF), for a final dilution of 1:200 after cell stimulation. Final dimethylsulfoxide is 0.5%. Incubate the plate at 37° C., 5% CO2 for two hours.
# 10. Remove unbound antibody from ELISA plates by inverting plate to remove liquid. Wash 3 times with TBSW+0.5% ethanolamine, pH 7.0. Pat the plate on a paper towel to remove excess liquid and bubbles.
# 11. Block plates with TBSW+0.5% Ethanolamine, pH 7.0, 150 μL per well. Incubate plate thirty minutes while shaking on a microliter plate shaker.
# 12. Wash plate 3 times as described in step 10.
# 13. […] Bring final volume to 150 μL/well with TBSW+0.5% ethanolamine pH 7.0. Incubate plate for thirty minutes while shaking.
# 14. Add 180 μL starvation medium to the cells and stimulate cells with 20 μL/well 10.0 mM sodium ortho vanadate and 500 ng/mL VEGF (resulting in a final concentration of 1.0 mM sodium ortho vanadate and 50 ng/mL VEGF per well) for eight minutes at 37° C., 5% CO2. Negative control wells receive only starvation medium.
# 15. After eight minutes, media should be removed from the cells and washed one time with 200 μL/well PBS.
# 16. Lyse cells in 150 μL/well HNTG while shaking at room temperature for five minutes. HNTG formulation includes sodium ortho vanadate, sodium pyro phosphate and EDTA.
# 17. Wash ELISA plate three times as described in step 10.
# 18. Transfer cell lysates from the cell plate to ELISA plate and incubate while shaking for two hours. To transfer cell lysate pipette up and down while scrapping the wells.
# 19. Wash plate three times as described in step 10.
# 20. Incubate ELISA plate with 0.02 μg/well UB40 in TBSW+05% ethanolamine. Bring final volume to 150 μL/well. Incubate while shaking for 30 minutes.
# 21. Wash plate three times as described in step 10.
# 22. Incubate ELISA plate with 1:10,000 diluted EIA grade goat anti-mouse IgG conjugated horseradish peroxidase in TBSW+0.5% ethanolamine, pH 7.0. Bring final volume to 150 μL/well. Incubate while shaking for thirty minutes.
# 23. Wash plate as described in step 10.
# 24. Add 100 μL of ABTS/H2O2 solution to well. Incubate ten minutes while shaking.
# 25. Add 100 μL of 0.2 M HCl for 0.1 M HCl final to stop the color development reaction. Shake 1 minute at room temperature. Remove bubbles with slow stream of air and read the ELISA plate in an ELISA plate reader at 410 nm.
# (§1) The IC50 values were measured for several of the compounds of the invention.
# pyk-2 protein kinase = target: T2, pyk-2 protein kinase (Homo sapiens, UniProt Q14289); experiment: Assay measuring PYK-2 protein kinase activity (phosphorylation of a biotinylated peptide); format: biochemical; details: pyk-2 from transformed yeast lysate, 5 μM ATP; for IC50: cells without %; for inhibition at 100 µM: compound at 100 μM
# T2 construct: made in house; host or cells: Schizosaccharomyces pombe strain SP200, pRSP expression plasmids
# T2 sequence (Q14289 whole entry): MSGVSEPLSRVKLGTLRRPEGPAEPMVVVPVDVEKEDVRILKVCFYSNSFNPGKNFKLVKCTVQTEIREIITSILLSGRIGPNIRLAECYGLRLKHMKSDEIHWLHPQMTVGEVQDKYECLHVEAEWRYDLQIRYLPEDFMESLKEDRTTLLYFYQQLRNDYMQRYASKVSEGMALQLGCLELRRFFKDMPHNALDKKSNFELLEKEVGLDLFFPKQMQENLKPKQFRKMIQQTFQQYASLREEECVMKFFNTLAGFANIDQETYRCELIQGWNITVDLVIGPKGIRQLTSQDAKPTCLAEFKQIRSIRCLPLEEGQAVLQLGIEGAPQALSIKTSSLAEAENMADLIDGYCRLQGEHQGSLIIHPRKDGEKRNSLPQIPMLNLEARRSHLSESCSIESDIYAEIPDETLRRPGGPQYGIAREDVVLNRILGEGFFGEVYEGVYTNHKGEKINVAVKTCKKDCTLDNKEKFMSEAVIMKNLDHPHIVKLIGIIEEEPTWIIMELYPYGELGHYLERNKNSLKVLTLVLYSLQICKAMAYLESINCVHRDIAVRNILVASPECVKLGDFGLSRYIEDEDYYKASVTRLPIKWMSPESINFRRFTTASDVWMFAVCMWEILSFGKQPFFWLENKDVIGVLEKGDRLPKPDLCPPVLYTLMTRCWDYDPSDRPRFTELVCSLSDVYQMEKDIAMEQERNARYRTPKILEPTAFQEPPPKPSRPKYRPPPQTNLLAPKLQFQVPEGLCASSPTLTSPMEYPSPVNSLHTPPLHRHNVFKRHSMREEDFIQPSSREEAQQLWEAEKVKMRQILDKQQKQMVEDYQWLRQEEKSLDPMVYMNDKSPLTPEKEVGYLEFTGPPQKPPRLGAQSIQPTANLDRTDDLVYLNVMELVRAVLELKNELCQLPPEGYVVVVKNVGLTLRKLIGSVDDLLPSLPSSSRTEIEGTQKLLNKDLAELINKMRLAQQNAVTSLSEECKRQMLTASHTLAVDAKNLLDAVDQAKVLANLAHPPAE
# Procedure: This assay is used to determine pyk-2 protein kinase activity measuring phosphorylation of a biotinylated peptide as the readout.
# a. Yeast transformed with pyk-2.
# b. Cell lysates: Yeast cells expressing pyk-2 are pelleted, washed once with water, re-pelleted and stored at −80° C. until use.
# c. N-terminus biotinylated […] is prepared by standard procedures well known to those skilled in the art.
# h. […] S. Pombe strain SP200 (h-s leul.32 ura4 ade21O) was grown as described and transformations were pRSP expression plasmids were done by the lithium acetate method (Superti-Furga, supra). Cells were grown in the presence of 1 μM thiamine to repress expression from the nmtl promoter or in the absence of thiamine to induce expression.
# a. Preparation of pyk-2 coated ELISA plate.
# 1. Coat ELISA plate with 0.5 μg/well anti-pyk-2 mab in 100 μL of pH 9.6 sodium carbonate buffer at 4° C. overnight.
# 2. Wash wells once with PBS.
# 3. Block plate with 0.15 mL 5% milk in PBS for 30 min. at room temperature.
# 4. Wash plate 5× with PBS.
# 5. Add 10 μg/well of pyk-2 transformed yeast lysates diluted in Lysis Buffer (0.1 mL total volume per well). (Amount of lysate may vary between hatches.) Shake plate for 20 minutes at room temperature.
# b. Preparation of phosphotyrosine antibody-coated ELISA plate.
# 1. 4G10 plate: coat 0.5 μg/well 4G10 in 100 μL PBS overnight at 4° C. and block with 150 μL of 5% milk in PBS for 30 minutes at room temperature.
# c. Kinase assay procedure.
# 1. Remove unbound proteins from steps 1-7, above, and wash plates 5× with PBS.
# 2. Add 0.08 mL Kinase Reaction Mixture per well (containing […] of 10×Kinase Buffer and 10 pM (final concentration) biotin-[…] per well diluted in water.
# 3. Add 10 μL of compound diluted in water containing 10% DMSO and pre-incubate for 15 minutes at room temperature.
# 4. Start kinase reaction by adding 10 μL/well of 0.05 mM ATP in water (5 μM ATP final).
# 5. Shake ELISA plate for 15 min. at room temperature.
# 6. Stop kinase reaction by adding 10 μL of 0.5 M EDTA per well.
# 7. Transfer 90 μL supernatant to a blocked 4G10 coated ELISA plate from section B, above.
# 8. Incubate for 30 min. while shaking at room temperature.
# 9. Wash plate 5× with TBST.
# 10. Incubate with Vectastain ELITE ABC reagent (100 μL/well) for 30 min. at room temperature.
# 11. Wash the wells 5× with TBST.
# 12. Develop with Turbo TMB.
# as §1
smiles,measurement,setting,value
"O=C1Nc2ccc(C(=O)O)cc2/C1=C/c1cc2ccccc2[nH]1 [IN-010, 3-(1H-Indol-2-ylmethylene)-2-oxo-2,3-dihydro-1H-indole-5-carboxylic acid]",IC50,FLK-1 receptor,2100 nM
same,IC50,pyk-2 protein kinase,3400 nM
"Cc1ccc2c(c1)/C(=C/c1[nH]c3ccccc3c1C)C(=O)N2 [IN-001, 5-Methyl-3-(3-methyl-1H-indol-2-ylmethylene)-1,3-dihydro-indol-2-one]",inhibition at 100 µM,FLK-1 receptor,10.7%
same,inhibition at 100 µM,pyk-2 protein kinase,-16%
"Cc1c(/C=C2\C(=O)Nc3ccc(Cl)cc32)[nH]c2ccccc12 [IN-017, 5-Chloro-3-(3-methyl-1H-indol-2-ylmethylene)-1,3-dihydro-indol-2-one]",inhibition at 100 µM,FLK-1 receptor,20.4%
same,inhibition at 100 µM,pyk-2 protein kinase,-12%
"Cc1c(/C=C2\C(=O)Nc3ccccc32)[nH]c2ccccc12 [IN-016, 3-(3-Methyl-1H-indol-2-ylmethylene)-1,3-dihydro-indol-2-one]",inhibition at 100 µM,FLK-1 receptor,26%
same,inhibition at 100 µM,pyk-2 protein kinase,-12.5%
"NS(=O)(=O)c1ccc2c(c1)/C(=C/c1cc3ccccc3[nH]1)C(=O)N2 [IN-008, 3-(1H-Indol-2-ylmethylene)-2-oxo-2,3-dihydro-1H-indole-5-sulfonic acid amide]",inhibition at 100 µM,FLK-1 receptor,23%
same,IC50,pyk-2 protein kinase,9600 nM
"O=C1Nc2ccc(Cl)cc2/C1=C/c1cc2ccccc2[nH]1 [IN-013, 5-chloro-3-(1H-indol-2-ylmethylene)-1,3-dihydro-indol-2-one]",inhibition at 100 µM,FLK-1 receptor,17%
same,inhibition at 100 µM,pyk-2 protein kinase,-12%
"Cc1c(/C=C2\C(=O)Nc3ccc(Br)cc32)[nH]c2ccccc12 [IN-018, 5-Bromo-3-(3-methyl-1H-indol-2-ylmethylene)-1,3-dihydro-indol-2-one]",inhibition at 100 µM,FLK-1 receptor,15.8%
same,inhibition at 100 µM,pyk-2 protein kinase,62%
"Cc1cccc2c1/C(=C/c1[nH]c3ccccc3c1C)C(=O)N2 [IN-019, 4-Methyl-3-(3-methyl-1H-indol-2-ylmethylene)-1,3-dihydro-indol-2-one]",inhibition at 100 µM,FLK-1 receptor,10.7%
same,inhibition at 100 µM,pyk-2 protein kinase,-36%
"Nc1ccc2c(c1)/C(=C/c1cc3ccccc3[nH]1)C(=O)N2 [IN-009, 5-Amino-3-(1H-indol-2-ylmethylene)-1,3-dihydro-indol-2-one]",IC50,FLK-1 receptor,1530 nM
same,IC50,pyk-2 protein kinase,680 nM
"Cc1c(/C=C2\C(=O)Nc3ccc(C(=O)O)cc32)[nH]c2ccccc12 [IN-005, 3-(3-Methyl-1H-indol-2-ylmethylene)-2-oxo-2,3-dihydro-1H-indole-5-carboxylic acid]",IC50,FLK-1 receptor,4200 nM
same,IC50,pyk-2 protein kinase,220 nM
"CC(=O)c1ccc2c(c1)C(=Cc1[nH]c3ccccc3c1C)C(=O)N2 [IN-006, 5-Acetyl-3-(3-methyl-1H-indol-2-ylmethylene)-1,3-dihydro-indol-2-one]",inhibition at 100 µM,FLK-1 receptor,10.4%
same,inhibition at 100 µM,pyk-2 protein kinase,27%
"O=C1Nc2cc(Cl)ccc2/C1=C/c1cc2ccccc2[nH]1 [IN-011, 6-Chloro-3-(1H-indol-2-ylmethylene)-1,3-dihydro-indol-2-one]",inhibition at 100 µM,FLK-1 receptor,6.1%
same,inhibition at 100 µM,pyk-2 protein kinase,7.4%
"O=C1Nc2ccccc2/C1=C/c1cc2ccccc2[nH]1 [IN-012, 3-(1H-Indol-2-ylmethylene)-1,3-dihydro-indol-2-one]",inhibition at 100 µM,FLK-1 receptor,17.6%
same,inhibition at 100 µM,pyk-2 protein kinase,5.1%
"Cc1c(/C=C2\C(=O)Nc3ccc(S(N)(=O)=O)cc32)[nH]c2ccccc12 [IN-002, 3-(3-Methyl-1H-indol-2-ylmethylene)-2-oxo-2,3-dihydro-1H-indole-5-sulfonic acid amide]",inhibition at 100 µM,FLK-1 receptor,8.7%
same,inhibition at 100 µM,pyk-2 protein kinase,46.7%
"CC(=O)c1ccc2c(c1)C(=Cc1cc3ccccc3[nH]1)C(=O)N2 [IN-007, 5-Acetyl-3-(1H-indol-2-ylmethylene)-1,3-dihydro-indol-2-one]",inhibition at 100 µM,FLK-1 receptor,30%
same,inhibition at 100 µM,pyk-2 protein kinase,17.9%
